Reference: US4692525A, “Process for the separation of optical isomers of racemic 1-pyridyl-alkyl-4-aryl piperazines, and optical isomers obtained thereby” (Malesci S.p.A. Istituto Farmacobiologico, priority 1983, dated 1987)

Legend:
[1] = Acute toxicity, i.p., mice (DL50); type: in vivo; conditions: mouse, in vivo, ip, i.p. injection, male Swiss mice; Wilcoxon method
Procedure: (§1) Male Swiss mice of 20-25 g body weight were treated by i.p. injection with rated concentrations of the three compounds. The values of DL50 and the relative confidence limits were calculated according to the method of Wilcoxon (J. Pharmac. Exp. Ther. 96, 99; 1949).

[2] = system: post-synaptic alpha-receptors; experiment: Alpha-blocking activity in vitro, isolated rabbit aorta, antagonism of nor-adrenaline response; type: biochemical; conditions: for pA2 (M ±DS): isolated rabbit aorta, versus nor-adrenaline
Procedure: The aorta isolated from a rabbit and prepared according to the procedure of Furchgott and Bhadrakom (J. Pharm. Exp. Ther. 108, 129; 1953) was tested with cumulative doses of nor-adrenaline till maximum responde obtainable in the absence and in the presence of the three compounds. The pA2 values were calculated according to Ariens and Van Rossum (Arch. Int. Pharmacodyn. 110, 275; 1957)
It is evident from the Table given above that the (+) derivative is 100 times as active as the (-) derivative and almost 3 times as active as the (r) compound in blocking the post-synaptic alpha-receptors response to nor-adrenaline.

[3] = system: Spontaneously hypertensive rats; experiment: Hypotensive activity in vivo, spontaneously hypertensive rats, oral; parameters: species or system rat; conditions: for ED50: Rattus norvegicus, 30' after oral administration, obtained from graphs; for anti-hypertensive activity (in words): in vivo, comparison among racemate and isomers
Procedure: Spontaneously hypertensive rats were employed after they were fasted for 16 hours and tested for their systemic pressure by bloodless measurements before and after oral administration of the three compounds at the doses of 5-10-15 mg/kg.
The administration of all the compounds gives rise to a lowering of the dose-dependent hypertension, because the regression coefficients are always significative. The ED50 values in mg/kg, obtained from the graphs of the activities observed, are as follows;

[4] = system: Male Swiss mice; experiment: Acute toxicity, i.p., mice (DL50); type: in vivo
Procedure: as §1

Compound	LD50 [1] [mg/kg]	pA2 (M ±DS) [2]	ED50 ([3]; 0.5 h) [mg/kg]	ED50 ([3]; 1.5 h, 1 h) [mg/kg]	toxicity compared with racemic compound (in words) ([4]; LD50 values or symptomatology)	activity relative to the (-) derivative in blocking the post-synaptic alpha-receptors response to nor-adrenaline ([2]; versus (-) derivative) [times]	activity relative to the (r) compound in blocking the post-synaptic alpha-receptors response to nor-adrenaline ([2]; versus (r) compound) [times]	anti-hypertensive activity (in words) [3]	anti-hypertensive activity (in words) ([3]; listed as dextrorotatory isomer)	DL50 ([4]; i.p. injection, male Swiss mice, Wilcoxon method) [mg/kg]	anti-hypertensive activity (in words) ([3]; listed as laevorotatory isomer)
CCOC(CN1CCN(c2ccccc2OC)CC1)c1cccnc1 (racemic) [(r), (±) 1-(2-ethoxy-2-ethoxy-2-(3'-pyridyl)ethyl)-4-(o-methoxyphenyl)piperazine]	75	8.62 ± 0.11	7.8	18.8							
CCOC(CN1CCN(c2ccccc2OC)CC1)c1cccnc1 (single isomer, unassigned; (+)) [(+), (+) 1-(2-ethoxy-2-(3'-pyridyl)ethyl)-4-(o-methoxyphenyl)piperazine]	65	9.04 ± 0.03	5.5	10.9	same toxicity of said racemic compound	100	~3	most active form	higher anti-hypertensive activity than the racemic compound		
CCOC(CN1CCN(c2ccccc2OC)CC1)c1cccnc1 (single isomer, unassigned; (-)) [(-), (-) 1-(2-ethoxy-2-(3'-pyridyl)ethyl)-4-(o-methoxyphenyl)piperazine]		6.95 ± 0.05						quite low activity		68	almost inactive
